Measurements taken from BindingDB's records for PubMed 9336327 (Preclinical R & D, Astra Arcus, 1997).

Tests used:
[1] = target: T1, Muscarinic acetylcholine receptor M2 (Rattus norvegicus, UniProt P10980)
T1 sequence (P10980 whole entry): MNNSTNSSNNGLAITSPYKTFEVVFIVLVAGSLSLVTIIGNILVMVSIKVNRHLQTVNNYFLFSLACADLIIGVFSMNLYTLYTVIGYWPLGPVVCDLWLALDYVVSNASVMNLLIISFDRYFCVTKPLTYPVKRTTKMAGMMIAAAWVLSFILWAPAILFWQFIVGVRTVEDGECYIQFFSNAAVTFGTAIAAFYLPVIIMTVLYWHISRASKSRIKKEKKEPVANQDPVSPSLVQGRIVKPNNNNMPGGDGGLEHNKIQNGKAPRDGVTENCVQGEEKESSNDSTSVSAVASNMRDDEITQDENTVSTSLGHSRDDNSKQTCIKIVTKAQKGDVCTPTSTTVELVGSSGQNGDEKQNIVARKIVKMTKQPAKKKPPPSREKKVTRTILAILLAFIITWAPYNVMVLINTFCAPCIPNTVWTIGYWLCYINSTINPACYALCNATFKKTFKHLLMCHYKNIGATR

Histamine H2 receptor = Histamine H2 receptor (Cavia porcellus, UniProt P47747)
[2] = target: Beta-2 adrenergic receptor (Rattus norvegicus, UniProt P10608)
[3] = target: Nicotinic acetylcholine receptor (Rattus leucopus, UniProt Q62594)
[4] = target: 5-hydroxytryptamine receptor 7 (Rattus norvegicus, UniProt P32305)
D(3) dopamine receptor = D(3) dopamine receptor (Homo sapiens, UniProt P35462)
[5] = target: T2, Alpha-2C adrenergic receptor (Rattus norvegicus, UniProt P22086)
T2 sequence (P22086 whole entry): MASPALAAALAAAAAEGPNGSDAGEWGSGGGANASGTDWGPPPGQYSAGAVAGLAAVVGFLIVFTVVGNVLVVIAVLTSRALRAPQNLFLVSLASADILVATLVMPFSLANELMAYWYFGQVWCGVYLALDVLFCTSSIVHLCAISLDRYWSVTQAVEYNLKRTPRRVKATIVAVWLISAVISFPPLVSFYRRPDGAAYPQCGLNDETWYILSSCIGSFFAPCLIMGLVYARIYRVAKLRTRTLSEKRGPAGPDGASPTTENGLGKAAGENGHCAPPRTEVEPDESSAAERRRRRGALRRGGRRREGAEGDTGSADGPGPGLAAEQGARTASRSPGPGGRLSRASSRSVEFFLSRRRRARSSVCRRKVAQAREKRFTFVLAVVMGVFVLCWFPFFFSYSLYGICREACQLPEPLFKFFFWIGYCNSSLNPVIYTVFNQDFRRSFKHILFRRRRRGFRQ

Glutamate receptor 3 = Glutamate receptor 3 (Rattus norvegicus, UniProt P19492)
Galanin peptides = target: T3, Galanin peptides (Rattus norvegicus, UniProt P10683)
T3 sequence (P10683 whole entry): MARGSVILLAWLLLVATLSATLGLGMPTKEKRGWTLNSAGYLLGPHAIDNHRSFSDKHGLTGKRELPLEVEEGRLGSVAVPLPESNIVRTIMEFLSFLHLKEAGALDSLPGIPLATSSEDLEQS

[6] = target: Gamma-aminobutyric acid receptor subunit alpha-1 (Rattus norvegicus, UniProt P62813)
[7] = target: T4, 5-hydroxytryptamine receptor 1A (Rattus norvegicus, UniProt P19327)
T4 sequence (P19327 whole entry): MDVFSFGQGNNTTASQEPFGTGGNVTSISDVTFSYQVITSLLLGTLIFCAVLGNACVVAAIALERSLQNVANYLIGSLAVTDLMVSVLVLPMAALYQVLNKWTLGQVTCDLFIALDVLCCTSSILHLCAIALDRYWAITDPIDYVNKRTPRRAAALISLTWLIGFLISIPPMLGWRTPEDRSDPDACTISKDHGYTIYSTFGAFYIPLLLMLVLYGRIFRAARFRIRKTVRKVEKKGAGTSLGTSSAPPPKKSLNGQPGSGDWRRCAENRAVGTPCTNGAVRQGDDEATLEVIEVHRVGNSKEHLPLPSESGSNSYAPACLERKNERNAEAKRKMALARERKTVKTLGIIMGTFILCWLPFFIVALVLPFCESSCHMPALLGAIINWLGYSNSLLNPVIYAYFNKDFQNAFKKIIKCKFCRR

[8] = target: 5-hydroxytryptamine receptor 2A (Rattus norvegicus, UniProt P14842)
[9] = target: 5-hydroxytryptamine receptor 1B (Rattus norvegicus, UniProt P28564)
[10] = target: 5-hydroxytryptamine receptor 6 (Rattus norvegicus, UniProt P31388)
D(1A) dopamine receptor = D(1A) dopamine receptor (Rattus norvegicus, UniProt P18901)
[11] = target: T5, Alpha-1A adrenergic receptor (Rattus norvegicus, UniProt P43140)
T5 sequence (P43140 whole entry): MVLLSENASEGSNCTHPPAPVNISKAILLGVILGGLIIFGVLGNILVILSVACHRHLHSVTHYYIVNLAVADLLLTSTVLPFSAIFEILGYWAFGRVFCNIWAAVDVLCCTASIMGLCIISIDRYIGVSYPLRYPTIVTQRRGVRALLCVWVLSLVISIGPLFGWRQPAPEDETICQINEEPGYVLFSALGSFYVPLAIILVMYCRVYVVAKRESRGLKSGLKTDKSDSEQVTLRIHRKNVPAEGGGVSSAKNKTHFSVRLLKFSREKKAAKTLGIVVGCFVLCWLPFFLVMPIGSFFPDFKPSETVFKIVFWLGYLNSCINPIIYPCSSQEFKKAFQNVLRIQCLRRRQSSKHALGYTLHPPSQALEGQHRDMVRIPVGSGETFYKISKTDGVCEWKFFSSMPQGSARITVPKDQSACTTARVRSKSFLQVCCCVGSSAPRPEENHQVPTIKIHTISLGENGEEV

D(2) dopamine receptor = D(2) dopamine receptor (Homo sapiens, UniProt P14416)
[12] = target: Glutamate receptor ionotropic, NMDA 1 (Rattus norvegicus, UniProt P35439)
Histamine H1 receptor = Histamine H1 receptor (Rattus norvegicus, UniProt P31390)
Histamine H1 receptor, sequence (P31390 whole entry): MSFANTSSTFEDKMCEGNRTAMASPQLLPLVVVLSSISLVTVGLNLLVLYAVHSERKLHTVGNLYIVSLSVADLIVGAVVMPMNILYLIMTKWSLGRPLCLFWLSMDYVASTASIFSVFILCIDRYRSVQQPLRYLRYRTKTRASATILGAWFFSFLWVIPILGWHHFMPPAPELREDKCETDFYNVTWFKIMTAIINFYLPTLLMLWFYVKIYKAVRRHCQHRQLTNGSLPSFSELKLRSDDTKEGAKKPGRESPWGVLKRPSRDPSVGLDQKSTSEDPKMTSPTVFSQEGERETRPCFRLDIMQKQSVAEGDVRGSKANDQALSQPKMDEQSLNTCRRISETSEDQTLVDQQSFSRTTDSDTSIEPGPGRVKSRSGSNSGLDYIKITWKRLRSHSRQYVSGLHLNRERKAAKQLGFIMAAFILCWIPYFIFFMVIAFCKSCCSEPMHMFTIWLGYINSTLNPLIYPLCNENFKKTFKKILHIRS

Histamine H2 receptor, sequence (P47747 whole entry): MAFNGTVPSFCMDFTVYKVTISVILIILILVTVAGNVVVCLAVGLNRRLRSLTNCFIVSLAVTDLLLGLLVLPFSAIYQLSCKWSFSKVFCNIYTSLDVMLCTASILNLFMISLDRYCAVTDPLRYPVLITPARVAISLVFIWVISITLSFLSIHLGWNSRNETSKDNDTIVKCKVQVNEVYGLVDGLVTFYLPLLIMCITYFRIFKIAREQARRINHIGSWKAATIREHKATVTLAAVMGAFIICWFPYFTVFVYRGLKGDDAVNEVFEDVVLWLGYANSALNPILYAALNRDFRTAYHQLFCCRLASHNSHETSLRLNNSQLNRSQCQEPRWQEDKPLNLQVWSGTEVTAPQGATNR
5-hydroxytryptamine receptor 2A, sequence (P14842 whole entry): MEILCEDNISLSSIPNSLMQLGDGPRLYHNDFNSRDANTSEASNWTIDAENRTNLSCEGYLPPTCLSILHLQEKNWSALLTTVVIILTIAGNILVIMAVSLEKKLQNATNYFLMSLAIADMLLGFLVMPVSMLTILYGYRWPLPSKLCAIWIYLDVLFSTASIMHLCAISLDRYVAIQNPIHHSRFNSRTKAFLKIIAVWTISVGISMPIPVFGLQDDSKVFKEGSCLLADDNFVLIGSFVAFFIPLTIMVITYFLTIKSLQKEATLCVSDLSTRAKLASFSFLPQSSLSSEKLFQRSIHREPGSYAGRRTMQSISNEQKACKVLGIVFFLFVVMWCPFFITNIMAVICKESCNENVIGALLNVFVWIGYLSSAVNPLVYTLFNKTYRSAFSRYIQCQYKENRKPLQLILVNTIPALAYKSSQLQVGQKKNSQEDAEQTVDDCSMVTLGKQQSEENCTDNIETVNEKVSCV
Nicotinic acetylcholine receptor, sequence (Q62594 whole entry): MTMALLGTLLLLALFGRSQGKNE
Glutamate receptor 3, sequence (P19492 whole entry): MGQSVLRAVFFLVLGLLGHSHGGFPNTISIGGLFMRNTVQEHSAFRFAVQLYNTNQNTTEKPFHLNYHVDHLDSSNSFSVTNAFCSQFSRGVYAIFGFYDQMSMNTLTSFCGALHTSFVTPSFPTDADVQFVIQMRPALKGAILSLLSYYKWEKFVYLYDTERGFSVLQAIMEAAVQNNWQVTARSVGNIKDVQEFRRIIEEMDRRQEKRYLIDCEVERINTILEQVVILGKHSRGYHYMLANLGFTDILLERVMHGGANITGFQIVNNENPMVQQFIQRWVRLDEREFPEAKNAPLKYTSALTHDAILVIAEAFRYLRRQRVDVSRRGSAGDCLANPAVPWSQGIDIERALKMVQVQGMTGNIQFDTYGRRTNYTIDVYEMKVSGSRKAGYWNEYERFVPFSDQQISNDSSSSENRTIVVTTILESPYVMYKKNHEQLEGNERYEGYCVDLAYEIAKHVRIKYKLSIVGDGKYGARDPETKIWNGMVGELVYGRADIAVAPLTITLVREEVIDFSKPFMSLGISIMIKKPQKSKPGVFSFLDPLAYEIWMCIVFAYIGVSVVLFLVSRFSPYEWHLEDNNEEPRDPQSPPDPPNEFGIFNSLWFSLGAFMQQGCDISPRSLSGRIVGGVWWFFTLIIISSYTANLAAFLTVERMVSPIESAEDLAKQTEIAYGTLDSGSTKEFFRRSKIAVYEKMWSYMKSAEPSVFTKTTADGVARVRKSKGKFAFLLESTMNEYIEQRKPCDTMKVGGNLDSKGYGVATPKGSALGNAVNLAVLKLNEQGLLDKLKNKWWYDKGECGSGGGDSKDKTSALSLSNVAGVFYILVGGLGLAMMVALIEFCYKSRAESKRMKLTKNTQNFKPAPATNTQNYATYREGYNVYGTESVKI
D(3) dopamine receptor, sequence (P35462 as listed by the source): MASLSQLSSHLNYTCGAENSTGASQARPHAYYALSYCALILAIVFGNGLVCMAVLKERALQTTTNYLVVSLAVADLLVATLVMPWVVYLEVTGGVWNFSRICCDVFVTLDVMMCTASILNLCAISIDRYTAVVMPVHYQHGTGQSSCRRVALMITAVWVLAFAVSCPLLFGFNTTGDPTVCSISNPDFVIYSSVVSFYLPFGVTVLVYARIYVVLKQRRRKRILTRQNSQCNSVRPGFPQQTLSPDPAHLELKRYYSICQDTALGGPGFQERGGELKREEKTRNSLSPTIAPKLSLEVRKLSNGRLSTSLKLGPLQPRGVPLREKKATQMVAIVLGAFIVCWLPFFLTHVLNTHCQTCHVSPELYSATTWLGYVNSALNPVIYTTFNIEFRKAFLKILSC
D(2) dopamine receptor, sequence (P14416 whole entry): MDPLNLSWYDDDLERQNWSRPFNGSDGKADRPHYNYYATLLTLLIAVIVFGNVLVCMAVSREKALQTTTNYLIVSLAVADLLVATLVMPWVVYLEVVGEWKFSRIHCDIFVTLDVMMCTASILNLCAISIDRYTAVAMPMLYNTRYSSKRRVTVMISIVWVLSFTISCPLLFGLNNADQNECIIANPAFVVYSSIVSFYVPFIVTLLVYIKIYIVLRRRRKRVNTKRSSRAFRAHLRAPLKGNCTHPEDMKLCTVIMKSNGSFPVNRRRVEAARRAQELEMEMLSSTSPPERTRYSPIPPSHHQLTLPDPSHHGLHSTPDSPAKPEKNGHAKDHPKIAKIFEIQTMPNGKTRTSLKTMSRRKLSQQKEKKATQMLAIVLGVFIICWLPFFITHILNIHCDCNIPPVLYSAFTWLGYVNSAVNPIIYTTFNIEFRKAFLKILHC
D(1A) dopamine receptor, sequence (P18901 whole entry): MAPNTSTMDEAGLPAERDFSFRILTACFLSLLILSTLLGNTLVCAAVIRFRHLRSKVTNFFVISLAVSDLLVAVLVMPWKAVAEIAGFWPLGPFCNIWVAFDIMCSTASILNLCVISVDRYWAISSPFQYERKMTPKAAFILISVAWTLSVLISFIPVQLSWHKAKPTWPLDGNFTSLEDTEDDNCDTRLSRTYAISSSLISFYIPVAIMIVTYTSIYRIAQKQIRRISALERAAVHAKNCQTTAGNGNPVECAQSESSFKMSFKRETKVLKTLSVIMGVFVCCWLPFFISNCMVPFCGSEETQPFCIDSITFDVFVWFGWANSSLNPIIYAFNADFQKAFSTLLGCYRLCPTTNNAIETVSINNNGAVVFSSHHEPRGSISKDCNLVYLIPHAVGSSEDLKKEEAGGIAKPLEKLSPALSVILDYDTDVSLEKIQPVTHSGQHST
Beta-2 adrenergic receptor, sequence (P10608 whole entry): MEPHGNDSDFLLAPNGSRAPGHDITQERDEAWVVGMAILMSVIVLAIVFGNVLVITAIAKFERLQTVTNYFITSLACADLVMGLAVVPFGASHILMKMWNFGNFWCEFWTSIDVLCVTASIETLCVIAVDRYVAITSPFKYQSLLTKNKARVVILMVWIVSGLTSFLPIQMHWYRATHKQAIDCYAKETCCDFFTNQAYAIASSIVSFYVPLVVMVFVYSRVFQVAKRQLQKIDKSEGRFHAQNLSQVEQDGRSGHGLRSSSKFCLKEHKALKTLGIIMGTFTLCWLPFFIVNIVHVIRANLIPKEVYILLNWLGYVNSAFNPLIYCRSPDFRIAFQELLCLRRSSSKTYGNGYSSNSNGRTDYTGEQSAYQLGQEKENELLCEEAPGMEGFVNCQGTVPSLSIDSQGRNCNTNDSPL
Gamma-aminobutyric acid receptor subunit alpha-1, sequence (P62813 whole entry): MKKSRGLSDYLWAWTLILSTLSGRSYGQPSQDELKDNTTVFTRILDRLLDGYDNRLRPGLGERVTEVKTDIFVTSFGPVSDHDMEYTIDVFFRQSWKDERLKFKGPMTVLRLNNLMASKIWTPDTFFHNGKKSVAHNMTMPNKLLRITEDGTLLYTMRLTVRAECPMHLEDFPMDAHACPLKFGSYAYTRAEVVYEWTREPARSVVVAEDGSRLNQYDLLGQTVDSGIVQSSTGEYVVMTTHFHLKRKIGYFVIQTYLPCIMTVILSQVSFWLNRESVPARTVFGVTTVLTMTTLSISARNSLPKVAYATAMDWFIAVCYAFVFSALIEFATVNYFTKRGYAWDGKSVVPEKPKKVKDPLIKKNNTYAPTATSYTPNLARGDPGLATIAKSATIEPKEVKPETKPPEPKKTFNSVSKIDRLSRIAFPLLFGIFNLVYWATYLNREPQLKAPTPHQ
5-hydroxytryptamine receptor 1B, sequence (P28564 whole entry): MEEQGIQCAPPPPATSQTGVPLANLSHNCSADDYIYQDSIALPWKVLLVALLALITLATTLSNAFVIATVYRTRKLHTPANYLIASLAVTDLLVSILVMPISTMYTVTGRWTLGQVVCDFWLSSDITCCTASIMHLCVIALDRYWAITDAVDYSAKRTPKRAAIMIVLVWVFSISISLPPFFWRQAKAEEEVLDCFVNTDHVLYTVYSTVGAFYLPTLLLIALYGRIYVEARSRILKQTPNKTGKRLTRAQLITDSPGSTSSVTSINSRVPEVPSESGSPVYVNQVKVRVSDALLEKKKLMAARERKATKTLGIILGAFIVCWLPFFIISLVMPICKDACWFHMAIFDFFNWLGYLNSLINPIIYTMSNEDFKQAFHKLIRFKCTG

SMILES | Ki [1] [nM] | Ki (Histamine H2 receptor) [nM] | Ki [2] [nM] | Ki [3] [nM] | Ki [4] [nM] | Ki (D(3) dopamine receptor) [nM] | Ki [5] [nM] | Ki (Glutamate receptor 3) [nM] | Ki (Galanin peptides) [nM] | Ki [6] [nM] | Ki [7] [nM] | Ki [8] [nM] | Ki [9] [nM] | Ki [10] [nM] | Ki (D(1A) dopamine receptor) [nM] | Ki [11] [nM] | Ki (D(2) dopamine receptor) [nM] | Ki [12] [nM] | Ki (Histamine H1 receptor) [nM]
NC(=O)c1ccc(F)c2c1CC(N(C1CCC1)C1CCC1)CO2 (stereo not drawn) [CAS_3055171] | 1000 | > 10000 | 340 | > 10000 | 1900 | 1000 | 1000 | > 10000 | 2600 | > 10000 | 0.59 | > 10000 | 1000 | > 10000 | 1000 | 260 | 1000 | > 10000 | > 10000
COc1ccccc1N1CCN(CCN(C(=O)C2CCCCC2)c2ccccn2)CC1 | 1000 | > 10000 | 1000 | > 10000 | – | 67 | 1000 | > 10000 | 2600 | > 10000 | – | 1100 | – | – | 1000 | – | 79 | > 10000 | > 10000
